Patent US20090270469A1, “SUBSTITUTED OXAZOLIDINONES” (AUSPEX PHARMACEUTICALS, INC., priority 2008, published 2009)

Columns and labels:
human liver microsomes = test: In vitro human liver microsomal (HLM) stability assay; format: in vitro ADME; details: human liver microsomes 1 mg/mL, 1 μM compound, 37° C., vs non-isotopically enriched drug
Experimental: Liver microsomal stability assays were conducted at 1 mg per mL liver microsome protein with an NADPH-generating system in 2% NaHCO3 (2.2 mM NADPH, 25.6 mM glucose 6-phosphate, 6 units per mL glucose 6-phosphate dehydrogenase and 3.3 mM MgCl2). Test compounds were prepared as solutions in 20% acetonitrile-water. These solutions were added to the assay mixture (final assay concentration 1 μM) and incubated at 37° C. Final concentration of acetonitrile in the assay should be <1%. Aliquots (50 μL) were collected at the these timpoints: […], and 1 hours, and diluted with ice cold acetonitrile (200 μL) to stop the reactions. Samples were centrifuged at 12,000 RPM for 10 minutes to precipitate proteins. Supernatants were transferred to micro centrifuge tubes and stored for LC/MS/MS analysis of the degradation half-life of the test compounds.
Results of in vitro Human Liver Microsomal (HLM) Stability Assay

[1] = 400 mg oral dose under fasted conditions; cited from earlier work

| Compound | % increase of HLM degradation half-life, bin 0%-50% (human liver microsomes) | other results |
| --- | --- | --- |
| [2H]C([2H])([2H])c1cc(OCC2CNC(=O)O2)cc(C([2H])([2H])[2H])c1 (centres unmarked) [Example 2, 5-[(3,5-dimethyl-d6-phenoxy)methyl]oxazolidin-2-one] | + (0%-50%) |  |
| [2H]C([2H])([2H])c1cc(OC([2H])([2H])C2([2H])OC(=O)NC2([2H])[2H])cc(C([2H])([2H])[2H])c1 (centres unmarked) [Example 6, 5-[(3,5-Dimethyl-d6-phenoxy)methyl-d2]oxazolidin-4,4,5-d3-2-one] | + (0%-50%) |  |
| Cc1cc(C)cc(OCC2CNC(=O)O2)c1 (centres unmarked) [Example 1, 5-[(3,5-dimethylphenoxy)methyl]oxazolidin-2-one] |  | terminal half-life [1]: 9.0 ± 4.8 h; time of peak plasma concentrations [1]: approximately 3 hours; % increase of HLM degradation half-life, bin −25%-0% (human liver microsomes): + (−25%-0%) |
| [2H]C([2H])(Oc1cc(C)cc(C)c1)C1CNC(=O)O1 (centres unmarked) [Example 3, 5-[(3,5-dimethyl-phenoxy)methyl-d2]oxazolidin-2-one] | + (0%-50%) |  |
| [2H]C1([2H])NC(=O)OC1([2H])C([2H])([2H])Oc1cc(C)cc(C)c1 (centres unmarked) [Example 5, 5-[(3,5-Dimethylphenoxy)methyl-d2]oxazolidin-4,4,5-d3-2-one] | + (0%-50%) |  |
| [2H]C([2H])([2H])c1cc(OC([2H])([2H])C2CNC(=O)O2)cc(C([2H])([2H])[2H])c1 (centres unmarked) [Example 4, 5-[(3,5-Dimethyl-d6-phenoxy)methyl-d2]oxazolidin-2-one] | + (0%-50%) |  |
